Test results as given in US9475854B2, “Lead compound for otoprotection: targeting HGF signaling with dihexa” (Washington State University, priority 2014, dated 2016).
Square brackets hold non-standard residues; d marks the D form. Peptide text beside a SMILES is read from it. * marks the point of attachment. Hexanoyl = CCCCCC(=O)*; Ahx = NCCCCCC(=O)O

Assays:
[1] = tested on: zebrafish lateral line hair cells; test: Protection of zebrafish lateral line hair cells from aminoglycoside toxicity (hair cell survival); assay type: in vivo; conditions: for hair cell survival rate: 1 μM Dihexa
Text: The data is presented as mean+1 standard deviation (s.d.) ***p<0.005. ****p<0.001, with the number of stars being the confidence for the measurements and the p (i.e., p-value) being the probability of obtaining a test statistic result at least as extreme as the one that was actually observed. It is to be appreciated the differences are considered significant at P<0.05. Note also that the 0 Dihexa concentration levels in FIG. 1 and FIG. 2 are control levels no protective Dihexa was introduced as just Neomycin and Gentamicin is present in the hair cells.
Such an example method of operation can be enabled by providing Dihexa concentrations for each ototoxin. […] Toxin concentrations and treatment times are selected so that in each case, a range of about 60% up to about 80% hair cell loss is achieved, sufficient to robustly detect protection. While the methodology described above provides desirable information for a variety of ototoxins, the Dihexa-mediated protection for neomycin, gentamicin, and kanamycin, as enabled herein, is the most desirable because these three antibiotics activate partially independent cell death pathways, such that a single compound may not universally protect hair cells from aminoglycoside toxicity (Owens et al., 2009; Coffin et al., 2009; Vlasits et al., 2012; Coffin et al., 2013).
As part of the analysis process, after treatment, hair cell survival is more often quantitatively assessed by labeling with either the vital dye DASPEI for assessment in live, anesthetized fish, or with an antibody to parvalbumin for quantification in fixed tissue (Harris et al., 2003; Owens et al., 2009; Coffin et al., 2009, 2013). DASPEI allows for rapid assessment with minimal tissue processing time, while immunofluorescence is used to validate DASPEI assessment scores. Labeled hair cells are thereafter viewed using fluorescence microscopy and quantified as described in the published literature (e.g., Harris et al., 2003; Coffin et al., 2009, 2013). […]

[2] = Short duration safety studies; assay type: in vivo
Text: This is unsurprising since oncogenesis requires multiple mutations including both oncogene induction and tumor suppressor attenuation. Accordingly, Dihexa, as utilized herein, can also be delivered locally via intratympanic membrane injection of a Dihexa-containing hydrogel (e.g., Salt et al., 2011; Wang et al., 2011) as a way of the proof-of-principle that Dihexa is robustly otoprotective in for example, but not limited to, pre-clinical models.

rat dementia model = conditions: in vivo administration (McCoy et al., 2013; unpublished data); cited from earlier work
[3] = tested on: rat Parkinson's Disease model; conditions: in vivo administration (McCoy et al., 2013; unpublished data); cited from earlier work
rats = conditions: in vivo in rats (Owens et al., 2008, Rubel et al., 2011); cited from earlier work

SMILES | protection from Neomycin-induced hair cell death ([1]; 1 μM Dihexa across Neomycin dose levels, FIG. 3) | hair cell survival rate ([1]; 50 μM Gentamycin toxicity, FIG. 2) | hair cell survival rate ([1]; 200 μM Neomycin toxicity, FIG. 1) | neoplastic induction [2] | toxicity [2] | symptoms in rat dementia model (rat dementia model) | symptoms in rat Parkinson's Disease model [3] | protection from aminoglycosides (rats)
CCCCCC(=O)N[C@@H](Cc1ccc(O)cc1)C(=O)N[C@H](C(=O)NCCCCCC(N)=O)[C@@H](C)CC [Dihexa] (Hexanoyl-Tyr-Ile-[Ahx]-NH2) | robust protection | greater than 40% | greater than 60% | lack of neoplastic induction | no apparent toxicity | significantly attenuates symptoms | significantly attenuates symptoms | 
CCN1CCc2c(sc(NC(=O)Nc3ccc(Cl)cc3)c2C(N)=O)C1 [PROTO-1] |  |  |  |  |  |  |  | confers protection
